Results published in US20240197680A1, “VORUCICLIB DOSING REGIMENS AND METHODS OF TREATMENT INCLUDING THE SAME” (MEI Pharma, Inc., priority 2021, published 2024).
Like-named read-outs stand apart in the source and are kept apart here.

Tests used:
Assay type in all cases: physicochemical
[1] = pH range solubility in biorelevant media
Experimental: In general, voruciclib was more prone to gel at suspension concentrations >5 mg/mL and solubilities >0.5 mg/mL.

Gelling in aqueous media = conditions: in water or aqueous buffers across the pH range
Experimental: Voruciclib can form a gel when dissolved in various media, depending on the other chemicals present. […] In general, voruciclib was more prone to gel at suspension concentrations >5 mg/mL and solubilities >0.5 mg/mL.

[2] = Hygroscopicity of voruciclib malonate
[3] = Stability of voruciclib malonate Batch 02MEI06-01-107; design: key to Organic Impurities by HPLC: RRT 1.05: —: below reporting threshold
Source text: The formulation contains colloidal silicon dioxide. The manufacturing process for this batch was similar to that described in Example 10. Stability study samples were packaged in the containers described in Example 9.

[4] = pKa of voruciclib malonate

- solubility ([1]; FEDGAS biorelevant medium, pH 3, fassgf or other biorelevant, thermodynamic from solid, pH 3.0 (FEDGAS), late stage of stomach emptying, read-out: Solubility): 11300 µg/mL
- solubility ([1]; FEDGAS biorelevant medium, pH 4.5, fassgf or other biorelevant, thermodynamic from solid, pH 4.5 (FEDGAS), mid stage of stomach emptying, read-out: Solubility): 4350 µg/mL
- solubility ([1]; FEDGAS biorelevant medium, pH 6, fassgf or other biorelevant, thermodynamic from solid, pH 6.0 (FEDGAS), early stage of stomach emptying, read-out: Solubility): 2880 µg/mL
- solubility ([1]; FaSSGF biorelevant medium, pH 1.6, fassgf or other biorelevant, thermodynamic from solid, pH 1.6 (FaSSGF), Stomach after glass of water, tested in duplicate, read-out: Solubility): > 13400 µg/mL
- solubility ([1]; FaSSIF biorelevant medium, pH 6.5, fassif, thermodynamic from solid, pH 6.5 (FaSSIF), Upper intestine after a glass of water, read-out: Solubility): 230 µg/mL
- solubility ([1]; FeSSIF biorelevant medium, pH 5, fessif, thermodynamic from solid, pH 5.0 (FeSSIF), Upper intestine after a meal, read-out: Solubility): < 4 µg/mL
- solubility ([1]; pH 1.6 (FaSSGF), Stomach after glass of water, tested in duplicate): 11050 µg/mL
- gel formation (Gelling in aqueous media): does not form a gel
- Hygroscopicity [2]: Non-hygroscopic
- Hygroscopicity ([2]; listed as Form 1): non-hygroscopic
- changes observed after storage ([3]; 6-months at 25° C./60% RH or 6-months at 40° C./75% RH): No significant changes
- Appearance by visual inspection ([3]; 25° C./60% RH, 1 months): Light
- Assay by HPLC (% w/w, as is) ([3]; 25° C./60% RH, 1 months): 96.8 % w/w
- Organic Impurities by HPLC: RRT 0.83 ([3]; 25° C./60% RH, 1 months): 0.06 % area
- Organic Impurities by HPLC: RRT 0.97 ([3]; 25° C./60% RH, 1 months): 0.55 % area
- Organic Impurities by HPLC: RRT 0.99 ([3]; 25° C./60% RH, 1 months): 0.59 % area
- Organic Impurities by HPLC: RRT 1.05 ([3]; 25° C./60% RH, 1 months): 0.09 % area
- Organic Impurities by HPLC: RRT 1.06 ([3]; 25° C./60% RH, 1 months): 0.08 % area
- Purity by HPLC ([3]; 25° C./60% RH, 1 months): 98.6 % area
- Total Impurities ([3]; 25° C./60% RH, 1 months): 1.38 % area
- Water Content by KF ([3]; 25° C./60% RH, 1 months): 0.47 % w/w
- XRPD ([3]; 25° C./60% RH, 1 months): Crystalline
- Appearance by visual inspection ([3]; 25° C./60% RH, 3 months): Light
- Assay by HPLC (% w/w, as is) ([3]; 25° C./60% RH, 3 months): 97.3 % w/w
- Organic Impurities by HPLC: RRT 0.83 ([3]; 25° C./60% RH, 3 months): 0.06 % area
- Organic Impurities by HPLC: RRT 0.97 ([3]; 25° C./60% RH, 3 months): 0.56 % area
- Organic Impurities by HPLC: RRT 0.99 ([3]; 25° C./60% RH, 3 months): 0.59 % area
- Organic Impurities by HPLC: RRT 1.05 ([3]; 25° C./60% RH, 3 months): 0.06 % area
- Organic Impurities by HPLC: RRT 1.06 ([3]; 25° C./60% RH, 3 months): 0.08 % area
- Purity by HPLC ([3]; 25° C./60% RH, 3 months): 98.7 % area
- Total Impurities ([3]; 25° C./60% RH, 3 months): 1.36 % area
- Water Content by KF ([3]; 25° C./60% RH, 3 months): 0.18 % w/w
- XRPD ([3]; 25° C./60% RH, 3 months): Crystalline
- Appearance by visual inspection ([3]; 25° C./60% RH, 6 months): Light
- Assay by HPLC (% w/w, as is) ([3]; 25° C./60% RH, 6 months): 97.7 % w/w
- Organic Impurities by HPLC: RRT 0.83 ([3]; 25° C./60% RH, 6 months): 0.05 % area
- Organic Impurities by HPLC: RRT 0.97 ([3]; 25° C./60% RH, 6 months): 0.52 % area
- Organic Impurities by HPLC: RRT 0.99 ([3]; 25° C./60% RH, 6 months): 0.58 % area
- Organic Impurities by HPLC: RRT 1.05 ([3]; 25° C./60% RH, 6 months): 0.05 % area
- Organic Impurities by HPLC: RRT 1.06 ([3]; 25° C./60% RH, 6 months): 0.08 % area
- Purity by HPLC ([3]; 25° C./60% RH, 6 months): 98.7 % area
- Total Impurities ([3]; 25° C./60% RH, 6 months): 1.32 % area
- Water Content by KF ([3]; 25° C./60% RH, 6 months): 0.36 % w/w
- XRPD ([3]; 25° C./60% RH, 6 months): Crystalline
- Appearance by visual inspection ([3]; 25° C./60% RH, Initial): Pale
- Assay by HPLC (% w/w, as is) ([3]; 25° C./60% RH, Initial): 96.9 % w/w
- Organic Impurities by HPLC: RRT 0.83 ([3]; 25° C./60% RH, Initial): 0.06 % area
- Organic Impurities by HPLC: RRT 0.97 ([3]; 25° C./60% RH, Initial): 0.55 % area
- Organic Impurities by HPLC: RRT 0.99 ([3]; 25° C./60% RH, Initial): 0.62 % area
- Organic Impurities by HPLC: RRT 1.05 ([3]; 25° C./60% RH, Initial): 0.15 % area
- Organic Impurities by HPLC: RRT 1.06 ([3]; 25° C./60% RH, Initial): 0.11 % area
- Purity by HPLC ([3]; 25° C./60% RH, Initial): 98.5 % area
- Total Impurities ([3]; 25° C./60% RH, Initial): 1.53 % area
- Water Content by KF ([3]; 25° C./60% RH, Initial): 0.56 % w/w
- XRPD ([3]; 25° C./60% RH, Initial): Crystalline
- Appearance ([3]; 40° C./75% RH, 1 months): Light
- Assay by HPLC (% w/w. as is) ([3]; 40° C./75% RH, 1 months): 96.4 % w/w
- Organic Impurities by HPLC: RRT 0.83 ([3]; 40° C./75% RH, 1 months): 0.06 % Area
- Organic Impurities by HPLC: RRT 0.97 ([3]; 40° C./75% RH, 1 months): 0.56 % Area
- Organic Impurities by HPLC: RRT 0.99 ([3]; 40° C./75% RH, 1 months): 0.58 % Area
- Organic Impurities by HPLC: RRT 1.05 ([3]; 40° C./75% RH, 1 months): 0.06 % Area
- Organic Impurities by HPLC: RRT 1.06 ([3]; 40° C./75% RH, 1 months): 0.08 % Area
- Purity by HPLC ([3]; 40° C./75% RH, 1 months): 98.7 % area
- Total Impurities ([3]; 40° C./75% RH, 1 months): 1.33 % area
- Water Content by KF ([3]; 40° C./75% RH, 1 months): 0.44 % w/w
- XRPD ([3]; 40° C./75% RH, 1 months): Crystalline
- Appearance ([3]; 40° C./75% RH, 3 months): Light
- Assay by HPLC (% w/w. as is) ([3]; 40° C./75% RH, 3 months): 97.3 % w/w
- Organic Impurities by HPLC: RRT 0.83 ([3]; 40° C./75% RH, 3 months): 0.06 % Area
- Organic Impurities by HPLC: RRT 0.97 ([3]; 40° C./75% RH, 3 months): 0.56 % Area
- Organic Impurities by HPLC: RRT 0.99 ([3]; 40° C./75% RH, 3 months): 0.59 % Area
- Organic Impurities by HPLC: RRT 1.05 ([3]; 40° C./75% RH, 3 months): —
- Organic Impurities by HPLC: RRT 1.06 ([3]; 40° C./75% RH, 3 months): 0.08 % Area
- Purity by HPLC ([3]; 40° C./75% RH, 3 months): 98.7 % area
- Total Impurities ([3]; 40° C./75% RH, 3 months): 1.29 % area
- Water Content by KF ([3]; 40° C./75% RH, 3 months): 0.14 % w/w
- XRPD ([3]; 40° C./75% RH, 3 months): Crystalline
- Appearance ([3]; 40° C./75% RH, 6 months): Light
- Assay by HPLC (% w/w. as is) ([3]; 40° C./75% RH, 6 months): 97.5 % w/w
- Organic Impurities by HPLC: RRT 0.83 ([3]; 40° C./75% RH, 6 months): 0.05 % Area
- Organic Impurities by HPLC: RRT 0.97 ([3]; 40° C./75% RH, 6 months): 0.52 % Area
- Organic Impurities by HPLC: RRT 0.99 ([3]; 40° C./75% RH, 6 months): 0.58 % Area
- Organic Impurities by HPLC: RRT 1.05 ([3]; 40° C./75% RH, 6 months): —
- Organic Impurities by HPLC: RRT 1.06 ([3]; 40° C./75% RH, 6 months): 0.08 % Area
- Purity by HPLC ([3]; 40° C./75% RH, 6 months): 98.8 % area
- Total Impurities ([3]; 40° C./75% RH, 6 months): 1.24 % area
- Water Content by KF ([3]; 40° C./75% RH, 6 months): 0.46 % w/w
- XRPD ([3]; 40° C./75% RH, 6 months): Crystalline
- Appearance ([3]; 40° C./75% RH, Initial): Pale
- Assay by HPLC (% w/w. as is) ([3]; 40° C./75% RH, Initial): 96.9 % w/w
- Organic Impurities by HPLC: RRT 0.83 ([3]; 40° C./75% RH, Initial): 0.06 % Area
- Organic Impurities by HPLC: RRT 0.97 ([3]; 40° C./75% RH, Initial): 0.55 % Area
- Organic Impurities by HPLC: RRT 0.99 ([3]; 40° C./75% RH, Initial): 0.62 % Area
- Organic Impurities by HPLC: RRT 1.05 ([3]; 40° C./75% RH, Initial): 0.15 % Area
- Organic Impurities by HPLC: RRT 1.06 ([3]; 40° C./75% RH, Initial): 0.11 % Area
- Purity by HPLC ([3]; 40° C./75% RH, Initial): 98.5 % area
- Total Impurities ([3]; 40° C./75% RH, Initial): 1.53 % area
- Water Content by KF ([3]; 40° C./75% RH, Initial): 0.56 % w/w
- XRPD ([3]; 40° C./75% RH, Initial): Crystalline
- pKa ([4]; first value listed): 6.46
- pKa ([4]; second value listed): 9.59
- pKa ([4]; third value listed): 12.1
Structure (SMILES): CN1CC[C@@H](c2c(O)cc(O)c3c(=O)cc(-c4ccc(C(F)(F)F)cc4Cl)oc23)[C@@H]1CO.O=C(O)CC(=O)O [Voruciclib Malonate, (2R,3S)-3-(2-(2-chloro-4-(trifluoromethyl)phenyl)-5,7-dihydroxy-4-oxo-4H-chromen-8-yl)-2-(hydroxymethyl)-1-methylpyrrolidin-1-ium-2-carboxyacetate]
